According to PubChem BioAssay AID1996:
In brackets after ≈: the same amount, converted by molar mass.

settings: buffer; pH 7.4; 200.0 µM

Compared with `Cc1ccc(OCC(=O)NCCCNC(=O)c2cnccn2)cc1C`, `Cc1cc(C(=O)OCC(=O)NCc2ccccc2Cl)c(C)o1` is 23-fold lower in solubility kinetic: 49.9 µg/mL (≈ 146 µM) for the first, 2.2 µg/mL (≈ 6.84 µM) for the second.

First: COC(=O)/C=C/COc1ccccc1[N+](=O)[O-]
Second: COc1ccccc1C(=O)NCCNc1ccc([N+](=O)[O-])cc1Cl
The solubility kinetic of the first is 26-fold higher: 17.9 µg/mL (≈ 75.5 µM) for the first, 0.7 µg/mL (≈ 2 µM) for the second.

`CCN(C(=O)COC(=O)c1cc2c(s1)CCCC2)c1c(N)n(Cc2ccccc2)c(=O)[nH]c1=O` and `CCN(C(=O)COC(=O)c1ccccc1O)c1nc2ccccc2s1` are within 1.5-fold of each other in solubility kinetic: 3.3 µg/mL (≈ 6.84 µM) for the first, 2.4 µg/mL (≈ 6.73 µM) for the second.

Compared with `N/C(COc1ccc(Cl)cc1Cl)=N\O`, `N/C(CCS(=O)(=O)c1ccc(Cl)cc1)=N\OC(=O)c1ccc(Cl)cc1` is 24-fold lower in solubility kinetic: 28.8 µg/mL (≈ 123 µM) for the first, 1.2 µg/mL (≈ 2.99 µM) for the second.

First: CCCCCCCOc1ccc(C2(C)NC(=O)NC2=O)cc1 (stereo not drawn)
Second: CCC1(c2ccc(N)cc2)CCC(=O)NC1=O (stereo not drawn)
The solubility kinetic of the first is lower: 9.3 µg/mL (≈ 30.6 µM) for the first, > 34.8 µg/mL for the second.

Compared with `Cc1ccc(NC(=O)CCC(=O)NNC(=O)C(C)(C)C)c(C)c1`, `CCc1noc(C)c1C(=O)Nc1ccccc1C(C)(C)C` is lower in solubility kinetic: > 47.9 µg/mL for the first, 39 µg/mL (≈ 136 µM) for the second.

Compared with `COc1ccc(OC)c(NC(=O)CCCSc2ccccc2)c1`, `COc1ccc(CCNC(=O)CSc2ccccn2)cc1` is higher in solubility kinetic: 13.7 µg/mL (≈ 41.3 µM) for the first, > 45.4 µg/mL for the second.

First: CC(=O)c1c[nH]c(C(=O)NC2CCCCCC2)c1
Second: O=C(NC1CCCCC1)c1cc(-c2cccc(Cl)c2)on1
The solubility kinetic of the first is 50-fold higher: 34.9 µg/mL (≈ 141 µM) for the first, 0.7 µg/mL (≈ 2.3 µM) for the second.

Compared with `O=C(Nc1ccc(Oc2ccsc2C(=O)O)cc1)c1ccccc1`, `Cc1cccc(NC(=O)Nc2ccc(OCc3ccccc3)cc2)n1` is lower in solubility kinetic: > 50.9 µg/mL for the first, < 0.2 µg/mL for the second.

`CCc1ccccc1NC(=O)c1cc(-c2ccco2)on1` and `CC(=O)c1cccc(NC(=O)c2cc(-c3ccco3)on2)c1` are within 1.5-fold of each other in solubility kinetic: 3.1 µg/mL (≈ 11 µM) for the first, 2.1 µg/mL (≈ 7.09 µM) for the second.

Compared with `Cc1cc(C(=O)Nc2ccccc2Cl)c2ccccc2n1`, `Cc1ccccc1-c1nc(C(=O)NCC2CCCO2)cc2c1[nH]c1ccccc12` (stereo not drawn) is 11-fold lower in solubility kinetic: 36.8 µg/mL (≈ 124 µM) for the first, 3.2 µg/mL (≈ 8.3 µM) for the second.

`O=C(c1ccccc1)N1CCSc2sccc2C1=O` and `N#Cc1ccc(C(CC(=O)O)N2Cc3ccccc3C2=O)cc1` (stereo not drawn) are within 1.5-fold of each other in solubility kinetic: 37.5 µg/mL (≈ 130 µM) for the first, 44 µg/mL (≈ 144 µM) for the second.

Going from `Cc1c(C(=O)O/N=C(\N)c2ccccn2)cccc1[N+](=O)[O-]` to `N/C(=N\OC(=O)c1ccc2c(c1)OCO2)c1ccncc1`, the solubility kinetic rises from 5.2 µg/mL (≈ 17.3 µM) to > 42.8 µg/mL.

Going from `CC(=O)Nc1nc(-c2ccc3c(c2)CC(C)N3C(=O)C2CC2)c(C)s1` (stereo not drawn) to `Cc1ccc(C(=O)N2CCC(C(=O)NCc3ccco3)CC2)cc1`, the solubility kinetic rises from 35 µg/mL (≈ 98.5 µM) to > 49 µg/mL.

Going from `CCON1C(=O)C(C)(C)N(OCC)C(=O)C1(C)C` to `CCOc1ccc(NC(=O)CN(C)C(=O)C2CCCC2)cc1OCC`, the solubility kinetic falls from > 38.7 µg/mL to 37.6 µg/mL (≈ 108 µM).

First: COc1ccc(CC(=O)N2CCc3ccccc3C2)cc1
Second: COc1ccc(C2CC(=O)C=C(NCc3ccccc3)C2)cc1 (stereo not drawn)
The solubility kinetic of the first is 2.8-fold higher: 39.6 µg/mL (≈ 141 µM) for the first, 14.2 µg/mL (≈ 46.2 µM) for the second.

`CCOC(=O)c1cc(C#N)c(SCC(=O)O)[nH]c1=O` and `N#Cc1cc2c([nH]c1=O)CCCC2` cannot be ordered by solubility kinetic: 38.8 µg/mL (≈ 137 µM) for the first, > 26.1 µg/mL for the second.

`Cc1nn(C)c(C)c1NC(=O)COc1ccccc1C#N` and `N#Cc1ccccc1NC(=O)COC(=O)CCc1ccccc1` cannot be ordered by solubility kinetic: > 42.6 µg/mL for the first, > 46.3 µg/mL for the second.

`Cc1cccn2c(=O)c(C=O)c(Nc3ccccc3)nc12` and `Cc1ccc2cc3c(nc2c1)N(c1ccccc1)CC3` cannot be ordered by solubility kinetic: < 0.2 µg/mL for the first, < 0.3 µg/mL for the second.

Going from `COc1cccc(NC(=O)[C@@H]2CCC(=O)N2C2OC(=O)c3ccccc32)c1` (stereo partly drawn) to `COc1cccc(-n2c(-c3ccccc3)c[nH]c2=S)c1`, the solubility kinetic falls from > 55 µg/mL to 7.8 µg/mL (≈ 27.6 µM).

Going from `CCCc1ccc(OCCNC(=O)c2ccco2)cc1` to `CCOc1ccc(Cn2c(=O)oc3ccccc32)cc1`, the solubility kinetic falls from > 41 µg/mL to < 0.6 µg/mL.

First: O=C(Nc1nccs1)c1ccc(COc2ccccc2)o1
Second: Cc1ccc(C(=O)Nc2nc(-c3ccccn3)cs2)o1
The solubility kinetic of the first is lower: < 0.3 µg/mL for the first, 37.1 µg/mL (≈ 130 µM) for the second.

Compared with `O=C(CSc1ccccn1)Nc1nonc1[N+](=O)[O-]`, `CSc1ncccc1C(=O)NC(C)CCc1ccccc1` (stereo not drawn) is lower in solubility kinetic: > 42.2 µg/mL for the first, 11.9 µg/mL (≈ 39.6 µM) for the second.

Going from `O=C1NC(=Nc2cccc(O)c2)S/C1=C\c1cccnc1` to `CN1C(=O)c2ccc(C(=O)NCc3ccccn3)cc2C1=O`, the solubility kinetic rises from 1.2 µg/mL (≈ 4.04 µM) to > 44.3 µg/mL.

First: COc1ccc(NC(=O)/C=C/c2cccc(C(F)(F)F)c2)cn1
Second: COc1ccccc1NC(=S)NC(=O)/C=C/c1cccs1
The solubility kinetic of the first is 13-fold higher: 5.3 µg/mL (≈ 16.4 µM) for the first, 0.4 µg/mL (≈ 1.26 µM) for the second.

Going from `CCC(C)Nc1nc(N)c([N+](=O)[O-])c(Nc2cc(OC)ccc2OC)n1` (stereo not drawn) to `COc1ccc(/C=C/C(=O)N2CCNC(=O)C2)c(OC)c1`, the solubility kinetic rises from 1.2 µg/mL (≈ 3.31 µM) to 41.3 µg/mL (≈ 142 µM) (34-fold).

Going from `Cn1c(O)c(C=Nc2cccc(C(F)(F)F)c2)c(=O)n(C)c1=O` to `Cc1nc2cc(NC(=O)Nc3cccc([N+](=O)[O-])c3)ccc2n1C`, the solubility kinetic falls from 10.6 µg/mL (≈ 32.4 µM) to 0.6 µg/mL (≈ 1.84 µM) (18-fold).

`S=P(N1CC1)(N1CC1)N1CC1` and `CC(=O)N1CCN(C(=O)c2ccco2)CC1` cannot be ordered by solubility kinetic: > 28.4 µg/mL for the first, > 33.3 µg/mL for the second.

First: COc1ccc(C(=O)O/N=C(\N)Cc2cccs2)cc1OC
Second: COc1ccc(CNC(C)Cc2cccs2)cc1 (stereo not drawn)
The solubility kinetic of the first is higher: > 48.1 µg/mL for the first, 30.4 µg/mL (≈ 116 µM) for the second.

Compared with `O=S(=O)(c1ccccc1)N1CCNCC1`, `CC1CN(S(=O)(=O)c2ccccc2)CN1C(=O)N1CCOCC1` (stereo not drawn) is higher in solubility kinetic: 26.6 µg/mL (≈ 118 µM) for the first, > 50.9 µg/mL for the second.

First: CCC(CC)c1nnc(NC(=O)c2cccc(S(=O)(=O)N3CCOCC3)c2)s1
Second: Cc1ccc(SCC(=O)Nc2cc(S(=O)(=O)N3CCCCC3)ccc2C)cc1
The solubility kinetic of the first is higher: > 63.7 µg/mL for the first, 9.9 µg/mL (≈ 23.7 µM) for the second.

`CCc1ccc(S(=O)(=O)Nc2ccc(N3CCN(C)CC3)cc2)cc1` and `CC(=O)Nc1ccc(S(=O)(=O)Nc2ccc(Cl)cn2)cc1` are within 1.5-fold of each other in solubility kinetic: 50.8 µg/mL (≈ 141 µM) for the first, 46.3 µg/mL (≈ 142 µM) for the second.

`Cn1c(N)c(C(=O)CSc2nnc3n2CCCCC3)c(=O)n(C)c1=O` and `CCNC(=O)C(=O)Nc1cc2c3c(c1)CCN3C(=O)CC2` cannot be ordered by solubility kinetic: > 54.7 µg/mL for the first, > 43.1 µg/mL for the second.

Going from `COc1ccc(C(=O)O)cc1S(=O)(=O)NC(C)(C)C` to `CCN(CC)C(=O)c1ccc(S(=O)(=O)c2ccccc2)cc1`, the solubility kinetic falls from > 43.1 µg/mL to 33.6 µg/mL (≈ 106 µM).

Going from `CC(NC(=O)COC(=O)c1cccnc1Cl)C12CC3CC(CC(C3)C1)C2` (stereo not drawn) to `CNC(=S)NC12CC3CC(CC(C3)C1)C2`, the solubility kinetic falls from 52.4 µg/mL (≈ 139 µM) to 3.8 µg/mL (≈ 16.9 µM) (14-fold).

Going from `CC(C(=O)Nc1cc(Cl)cc(Cl)c1)N1CCCC1` (stereo not drawn) to `C=CCc1ccc(OC(=O)NC2CCCCC2)c(OC)c1`, the solubility kinetic falls from > 43.1 µg/mL to 4.5 µg/mL (≈ 15.6 µM).

Going from `O=C1CCCCCCCN1Cc1ccccc1` to `C=CCNC(=S)N1CCC(Cc2ccccc2)CC1`, the solubility kinetic falls from > 34.7 µg/mL to 31.5 µg/mL (≈ 115 µM).

First: CCCCCCCCCCCC(=O)N1CC(=O)NC(=O)C1
Second: CC(=O)Nc1ccc(C(=O)N2CC(=O)NC(=O)C2)cc1
The solubility kinetic of the first is lower: 2.5 µg/mL (≈ 8.43 µM) for the first, > 41.3 µg/mL for the second.

Compared with `CN(C(=O)c1ccc(Cl)cc1)C1CCS(=O)(=O)C1` (stereo not drawn), `O=C(CCSc1ccc(Cl)cc1)NCc1ccncc1` is higher in solubility kinetic: 41.2 µg/mL (≈ 143 µM) for the first, > 46 µg/mL for the second.

First: Cc1ccc(/C=N/N2CCOCC2)s1
Second: NCCc1nc2ccccc2s1
The solubility kinetic of the first is higher: > 31.5 µg/mL for the first, 23.2 µg/mL (≈ 130 µM) for the second.

Compared with `O=[N+]([O-])c1ccc(-n2cnc3ccccc32)c([N+](=O)[O-])c1`, `Cc1ccc(CNC(=O)CSc2nc3ccccc3[nH]2)cc1` is lower in solubility kinetic: > 42.6 µg/mL for the first, 31.1 µg/mL (≈ 99.9 µM) for the second.

`NC(=O)c1cnccn1` and `Nc1ccc(-c2nc3ncccc3o2)cc1` cannot be ordered by solubility kinetic: > 18.5 µg/mL for the first, > 31.7 µg/mL for the second.

`CC(=O)N1N=C(N)SC1(C)C` and `Cc1ccccc1CN(C)C(C)C(=O)NCc1ccccc1` (stereo not drawn) cannot be ordered by solubility kinetic: > 26 µg/mL for the first, 37.1 µg/mL (≈ 125 µM) for the second.

Compared with `COc1ccccc1CN1CCCC(CNC(=O)c2cccc3ccccc23)C1` (stereo not drawn), `Cc1cc(Cl)ccc1NS(=O)(=O)c1c(C)[nH]c(=O)[nH]c1=O` is higher in solubility kinetic: 49.5 µg/mL (≈ 127 µM) for the first, > 49.5 µg/mL for the second.
